The record followed here is ChEMBL document CHEMBL5042471, “Development and Application of Subtype-Selective Fluorescent Antagonists for the Study of the Human Adenosine A1 Receptor in Living Cells” (J Med Chem, 2021).

As a reminder, the pKd is the Kd on a negative log10 scale, so that one unit is a factor of ten. Lower therefore signals a large Kd. What is called pEC50 is the EC50 on a negative log10 scale, so that one unit is a factor of ten. In general, pKi refers to the negative decadic logarithm of the Ki, by convention in mol/L. High values mean a low Ki, low ones a high Ki.

pEC50, pKd, pKi: −log10 of the molar value.

For experiment [1], the target named is T1, Adenosine receptor A1 (Homo sapiens, UniProt P30542).
T1 sequence (P30542 whole entry): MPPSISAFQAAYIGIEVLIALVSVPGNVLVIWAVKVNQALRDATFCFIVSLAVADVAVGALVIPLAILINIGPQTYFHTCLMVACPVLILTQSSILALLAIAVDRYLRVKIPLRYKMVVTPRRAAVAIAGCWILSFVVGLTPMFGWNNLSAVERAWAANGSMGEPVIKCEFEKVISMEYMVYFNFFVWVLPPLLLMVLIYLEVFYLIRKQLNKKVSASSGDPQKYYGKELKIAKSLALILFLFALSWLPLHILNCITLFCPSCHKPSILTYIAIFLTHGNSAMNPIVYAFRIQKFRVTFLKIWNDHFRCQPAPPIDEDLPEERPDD
Briefly: Binding affinity to N-terminal NLuc tagged human A1 adenosine receptor expressed in Flp-In-CHO cells by competitive binding assay. The class given is cell-based.

Experiment [2] deals with T2, Adenosine receptor A1 (Rattus norvegicus, UniProt P25099).
T2 sequence (P25099 whole entry): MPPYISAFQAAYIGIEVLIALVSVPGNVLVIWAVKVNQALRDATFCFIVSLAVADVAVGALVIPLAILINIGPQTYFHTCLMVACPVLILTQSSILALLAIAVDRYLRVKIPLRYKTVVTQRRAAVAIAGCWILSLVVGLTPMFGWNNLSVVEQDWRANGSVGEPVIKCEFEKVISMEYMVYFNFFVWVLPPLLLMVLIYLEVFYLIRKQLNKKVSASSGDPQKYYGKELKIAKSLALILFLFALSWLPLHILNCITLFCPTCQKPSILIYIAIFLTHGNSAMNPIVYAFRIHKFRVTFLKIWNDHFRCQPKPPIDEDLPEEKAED
In words: Binding affinity to N-terminal NLuc tagged rat A1 adenosine receptor expressed in Flp-In-CHO cells by competitive binding assay. The class given is cell-based.

In experiment [3] the target is T3, Adenosine receptor A3 (Homo sapiens, UniProt P0DMS8).
T3 sequence (P0DMS8 whole entry): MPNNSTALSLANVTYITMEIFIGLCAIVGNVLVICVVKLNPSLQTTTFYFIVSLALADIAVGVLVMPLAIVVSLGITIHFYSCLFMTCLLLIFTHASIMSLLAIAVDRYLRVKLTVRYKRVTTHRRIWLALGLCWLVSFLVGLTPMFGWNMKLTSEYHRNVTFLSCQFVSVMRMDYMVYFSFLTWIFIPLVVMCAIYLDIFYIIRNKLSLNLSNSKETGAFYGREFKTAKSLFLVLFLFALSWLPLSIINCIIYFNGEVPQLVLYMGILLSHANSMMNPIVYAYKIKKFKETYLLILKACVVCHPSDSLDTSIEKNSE
Briefly: Agonist activity at human A3 adenosine receptor expressed in Flp-In-CHO cells assessed as calcium influx by competitive binding assay. The class given is functional, cell-based.

In experiment [4] the target is T3, Adenosine receptor A3. In words: Agonist activity at A3 adenosine receptor (unknown origin). In kind it is functional.
The target of experiment [5] is T3, Adenosine receptor A3. Briefly: Antagonist activity at N-terminal NLuc tagged human A3 adenosine receptor. The class given is functional.

As for `CCCn1c(=O)c2[nH]c(-c3ccc(OCC(=O)NCCNC(=O)CCNC(=O)CCCCNC(=O)CCCCNC(=O)COc4ccc(/C=C/C5=[N+]6C(=Cc7ccc(-c8cccs8)n7[B-]6(F)F)C=C5)cc4)cc3)nc2n(CCC)c1=O`, the pKd is 7.47 in experiment [1] and 7.45 in experiment [2].

Turning to `O=C(CCCCCNC(=O)COc1ccc(/C=C/C2=[N+]3C(=Cc4ccc(-c5cccs5)n4[B-]3(F)F)C=C2)cc1)NCCCCNc1ncnc2c1ncn2[C@@H]1O[C@H](CO)[C@@H](O)[C@H]1O`, the pEC50 was 5.90 in experiment [3] and 7.30 in experiment [4].

Regarding `CCCn1c(=O)c2[nH]c(-c3ccc(OCC(=O)NCCNC(=O)CCCCNC(=O)COc4ccc(/C=C/C5=[N+]6C(=Cc7ccc(-c8cccs8)n7[B-]6(F)F)C=C5)cc4)cc3)nc2n(CCC)c1=O`, in experiment [1], the pKi was 8.03. The compound also showed a pKd in experiment [5] of 7.51.
